# Measured values: patent US12606528B2, “Methods and materials for inhibiting NF-kB activity” (University of Pittsburgh - Of the Commonwealth System of …, priority 2019, dated 2026)
# pIC50: −log10 of the molar value. Read-outs that look alike come from different tables or passages of the source.
# Experiments:
# NF-κB = NF-κB assay: THP1-NF-κB-LUC cells, LPS-stimulated secreted luciferase; format: cell-based; details: THP1-NF-κB-LUC cells, read-out: IC50 (NF-κB assay)
# Summary of the method: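 THP1-NF-κB-LUC cells (25k/well) were pretreated with compounds for 2 h, then stimulated with LPS (10 ng/mL) for 18 h. Secreted luciferase was measured and normalized to vehicle, and IC50 was fitted from the concentration series.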
# TNF release = assay: TNF assay: TNF release from LPS-stimulated human PBMCs (TNF ELISA); format: cell-based; details: PBMC, read-out: IC50 (TNF assay)
# Protocol: 25k THP1-NF-κB-LUC cells were dispensed into 384 well plate (per well). Cells were treated with compounds with various concentrations for 2 hours before addition of LPS (10 ng/mL) for 18 hours. Secreted luciferase activity were measured using quant-luc reagents (1 bag of luc reagent dilute to 40 mL, use 10 μL per well). Data were normalized to vehicle control and graphed. Compound IC50 towards inhibiting NF-κB were determined through Prism. Similarly, 10k human PBMCs cells were cultured in 384 well plate (per well). Cells were treated with compounds with various concentrations for 2 hours before addition of LPS (10 ng/ml) for 18 hours, and supernatants were collected and assayed for TNF ELISA. Compound IC50 towards inhibiting TNF release were determined through Prism. • Activity: “+”>10 μM, “++”>1 μM and <10 μM, “+++”>0.1 μM and <1 μM, “++++”<0.1 μM.
# [1] = compounds 2 hours before LPS (10 ng/mL) for 18 hours, secreted luciferase
# [2] = human PBMCs, compounds 2 hours before LPS (10 ng/ml) for 18 hours, supernatant TNF ELISA
# [3] = LPS-stimulated human PBMCs, TNF ELISA
Structure (SMILES),pIC50 (NF-κB; [1]),pIC50 (TNF release; [2]),pIC50 (NF-κB; LPS-stimulated),pIC50 (TNF release; [3])
CC(=O)N1c2cc(S(=O)(=O)N3CCCC3)ccc2NC(=O)C1C (stereo not drawn) [BC19182],–,–,< 5.00,< 5.00
CC(C)CC(=O)N1c2cc(S(=O)(=O)N3CCCC3)ccc2NC(=O)C1C (stereo not drawn) [BC19184],–,–,< 5.00,< 5.00
CN1CCN(C(=O)c2ccc3nc(-c4ccc(F)cc4)c(-c4cccs4)nc3c2)CC1 [BC19185],–,–,> 7.00,< 5.00
Fc1ccc(-c2nc3cc(-c4nnn[nH]4)ccc3nc2-c2cccs2)cc1 [BC19186],–,–,5.00 to 6.00,< 5.00
NC(=O)c1ccc2nc(-c3ccc(F)cc3)c(-c3cccs3)nc2c1 [BC19187],–,–,6.00 to 7.00,< 5.00
CNC(=O)c1ccc2nc(-c3ccc(F)cc3)c(-c3cccs3)nc2c1 [BC19188],–,–,6.00 to 7.00,< 5.00
C#CCNC(=O)c1ccc2nc(-c3ccc(F)cc3)c(-c3cccs3)nc2c1 [BC19189],–,–,6.00 to 7.00,< 5.00
Cc1nc(-c2ccc3nc(-c4ccc(F)cc4)c(-c4ccc(F)cc4)nc3c2)no1 [BC19190],–,–,6.00 to 7.00,< 5.00
CN1CCN(C(=O)c2ccc3nc(-c4cccs4)cnc3c2)CC1 [BC19191],–,–,< 5.00,< 5.00
N#Cc1ccc2nc(-c3ccc(F)cc3)c(-c3ccc(F)cc3)nc2c1 [BC19192],–,–,6.00 to 7.00,< 5.00
Cc1noc(-c2ccc3nc(-c4ccc(F)cc4)c(-c4ccc(F)cc4)nc3c2)n1 [BC19193],–,–,6.00 to 7.00,< 5.00
N=C(NO)c1ccc2nc(-c3ccc(F)cc3)c(-c3ccc(F)cc3)nc2c1 [BC19194],–,–,> 7.00,< 5.00
CC(C)OC(=O)Nc1ccc2nc(-c3ccc(F)cc3)c(-c3ccc(F)cc3)nc2c1 [BC19195],–,–,5.00 to 6.00,< 5.00

# Second part, the compound after the results:
pIC50 (NF-κB; [1]),pIC50 (TNF release; [2]),pIC50 (NF-κB; LPS-stimulated),pIC50 (TNF release; [3]),Structure (SMILES)
> 7.00,< 5.00,–,–,O=C1COc2c(cc(Cl)cc2S(=O)(=O)Nc2ccc(OC(F)(F)F)cc2)N1 [BC19172]
> 7.00,< 5.00,–,–,CCOc1ccc(NS(=O)(=O)c2cc(Br)cc3c2OCC(=O)N3)cc1 [BC19173]
> 7.00,< 5.00,–,–,CC(C)c1ccc(NS(=O)(=O)c2cc(Cl)cc3c2OCC(=O)N3)cc1 [BC19174]
> 7.00,< 5.00,–,–,COc1ccc(NS(=O)(=O)c2cc(Br)cc3c2OCC(=O)N3)cc1 [BC19175]
> 7.00,< 5.00,–,–,Cc1ccc(NS(=O)(=O)c2cc(Cl)cc3c2OCC(=O)N3)cc1Cl [BC19176]
> 7.00,< 5.00,–,–,O=C1COc2c(cc(Br)cc2S(=O)(=O)Nc2ccc(F)c(F)c2)N1 [BC19177]
> 7.00,5.00 to 6.00,–,–,O=C1COc2c(cc(Br)cc2S(=O)(=O)Nc2ccc(F)cc2F)N1 [BC19178]
> 7.00,< 5.00,–,–,CCc1ccc(NS(=O)(=O)c2cc(Br)cc3c2OCC(=O)N3)cc1 [BC19179]
> 7.00,< 5.00,–,–,CCc1cccc(NS(=O)(=O)c2cc(Br)cc3c2OCC(=O)N3)c1 [BC19180]
–,–,< 5.00,< 5.00,CN1CC(=O)Nc2ccc(S(=O)(=O)N3CCCC3)cc21 [BC19181]
–,–,< 5.00,< 5.00,CNC(=O)N1CC(=O)Nc2ccc(S(=O)(=O)N3CCCC3)cc21 [BC19183]
6.00 to 7.00,< 5.00,–,–,O=c1c(S(=O)(=O)c2ccc(F)c(F)c2)c[nH]c2c(Cl)ccc(F)c12 [BC19196]
6.00 to 7.00,< 5.00,–,–,Cc1ccc(F)c2c(=O)c(S(=O)(=O)c3ccc(F)c(F)c3)c[nH]c12 [BC19197]
5.00 to 6.00,< 5.00,–,–,Cc1ccc(C)c2c(=O)c(S(=O)(=O)c3ccc(F)c(F)c3)c[nH]c12 [BC19198]
6.00 to 7.00,< 5.00,–,–,COc1ccc(Cl)c2c(=O)c(S(=O)(=O)c3ccc(F)c(F)c3)c[nH]c12 [BC19199]
5.00 to 6.00,< 5.00,–,–,COc1ccc(C)c2c(=O)c(S(=O)(=O)c3ccc(F)c(F)c3)c[nH]c12 [BC19200]
< 5.00,< 5.00,–,–,O=c1c(S(=O)(=O)c2ccc(F)c(F)c2)c[nH]c2ccncc12 [BC19201]
